Experimental data reported in ChEMBL document CHEMBL1201862, “PubChem BioAssay data set” (2004).
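Compound exposure: 48 hours, 5 concentrations, 96-well plates. GI50 = concentration required for 50% inhibition of growth.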 Active and inactive are the calls of the source. Rule as the data show it: active = GI50 up to about 1.1 µM and inactive = higher.

Experiments:
Assay in all cases: NCI tumour cell line growth inhibition, 48 h
[1] = tested on: HOP-92
[2] = tested on: A498
[3] = tested on: SF-539
[4] = tested on: RPMI-8226
[5] = tested on: SK-MEL-2
[6] = tested on: SF-268
[7] = tested on: NCI/ADR-RES
[8] = tested on: MDA-MB-435
[9] = tested on: HOP-62
[10] = tested on: SF-295
[11] = tested on: Malme-3M
[12] = tested on: SNB-75
[13] = tested on: HCT-116
[14] = tested on: UO-31
[15] = tested on: SK-MEL-5
[16] = tested on: MDA-MB-231
[17] = tested on: SW-620
[18] = tested on: PC-3
[19] = tested on: 786-0
[20] = tested on: NCI-H226
[21] = tested on: ACHN
[22] = tested on: OVCAR-3
[23] = tested on: BT-549
[24] = tested on: UACC-62
[25] = tested on: OVCAR-8
[26] = tested on: UACC-257
[27] = tested on: K562
[28] = tested on: DU-145
[29] = tested on: SR
[30] = tested on: HL-60
[31] = tested on: IGROV-1
[32] = tested on: NCI-H522
[33] = tested on: MDA-N
[34] = tested on: TK-10
[35] = tested on: CCRF-CEM
[36] = tested on: SNB-19
[37] = tested on: LOX IMVI
[38] = tested on: EKVX
[39] = tested on: COLO 205
[40] = tested on: Hs-578T
[41] = tested on: CAKI-1
[42] = tested on: HT-29
[43] = tested on: MCF7
[44] = tested on: T47D
[45] = tested on: SK-OV-3
[46] = tested on: MOLT-4
[47] = tested on: NCI-H23
[48] = tested on: OVCAR-5
[49] = tested on: M14
[50] = tested on: U-251
[51] = tested on: KM12
[52] = tested on: NCI-H460
[53] = tested on: HCC 2998
[54] = tested on: OVCAR-4
[55] = tested on: SN12C
[56] = tested on: HCT-15
[57] = tested on: A549
[58] = tested on: RXF 393
[59] = tested on: SK-MEL-28

In the case of `Cc1cc2nnc(C(N)=O)c(N)c2cc1C`, the GI50 [1] is reported as 26.2 µM (inactive), the GI50 [2] is reported as > 100 µM (inactive) and the GI50 [3] is reported as > 100 µM (inactive). For the same compound, the GI50 [4] was > 100 µM (inactive), the GI50 [5] was 64.7 µM (inactive) and the GI50 [6] was 30.1 µM (inactive). The GI50 [7] was > 100 µM (inactive), the GI50 [8] was > 100 µM (inactive) and the GI50 [9] was 39.8 µM (inactive). The GI50 [10] was > 100 µM (inactive), the GI50 [11] was 38.4 µM (inactive) and the GI50 [12] was 12.9 µM (inactive). The GI50 [13] was > 100 µM (inactive), the GI50 [14] was > 100 µM (inactive) and the GI50 [15] was > 100 µM (inactive). For the same compound, the GI50 [16] was > 100 µM (inactive), the GI50 [17] was > 100 µM (inactive) and the GI50 [18] was > 100 µM (inactive). For the same compound, the GI50 [19] was 29.1 µM (inactive), the GI50 [20] was > 100 µM (inactive) and the GI50 [21] was > 100 µM (inactive). The GI50 [22] was > 100 µM (inactive), the GI50 [23] was > 100 µM (inactive) and the GI50 [24] was > 100 µM (inactive). The GI50 [25] was 47.8 µM (inactive), the GI50 [26] was > 100 µM (inactive) and the GI50 [27] was > 100 µM (inactive). For the same compound, the GI50 [28] was > 100 µM (inactive), the GI50 [29] was > 100 µM (inactive) and the GI50 [30] was > 100 µM (inactive). The GI50 [31] was > 100 µM (inactive), the GI50 [32] was 20 µM (inactive) and the GI50 [33] was > 100 µM (inactive). For the same compound, the GI50 [34] was > 100 µM (inactive), the GI50 [35] was > 100 µM (inactive) and the GI50 [36] was > 100 µM (inactive). The GI50 [37] was > 100 µM (inactive), the GI50 [38] was > 100 µM (inactive) and the GI50 [39] was > 100 µM (inactive). The GI50 [40] was 30.5 µM (inactive), the GI50 [41] was > 100 µM (inactive) and the GI50 [42] was > 100 µM (inactive). The GI50 [43] was > 100 µM (inactive), the GI50 [44] was > 100 µM (inactive) and the GI50 [45] was 42.1 µM (inactive). For the same compound, the GI50 [46] was > 100 µM (inactive), the GI50 [47] was > 100 µM (inactive) and the GI50 [48] was > 100 µM (inactive). For the same compound, the GI50 [49] was > 100 µM (inactive), the GI50 [50] was > 100 µM (inactive) and the GI50 [51] was > 100 µM (inactive). For the same compound, the GI50 [52] was > 100 µM (inactive), the GI50 [53] was > 100 µM (inactive) and the GI50 [54] was > 100 µM (inactive). For the same compound, the GI50 [55] was > 100 µM (inactive), the GI50 [56] was > 100 µM and the GI50 [57] was > 100 µM (inactive).

In the case of `S=C(NCCc1ccccn1)N/N=C(\c1ccccc1)c1ccccn1`, the GI50 [1] is reported as 1.63 µM (inactive), the GI50 [2] is reported as 0.211 µM (active) and the GI50 [3] is reported as 0.63 µM (active). For the same compound, the GI50 [4] was 0.0634 µM (active), the GI50 [5] was 21.5 µM (inactive) and the GI50 [6] was 0.222 µM (active). The GI50 [7] was 0.0933 µM (active), the GI50 [8] was 5.86 µM (inactive) and the GI50 [9] was 1.77 µM (inactive). For the same compound, the GI50 [10] was 2.33 µM (inactive), the GI50 [11] was 0.0251 µM (active) and the GI50 [12] was 6.47 µM (inactive). For the same compound, the GI50 [13] was < 0.01 µM (active), the GI50 [14] was 1.23 µM (inactive) and the GI50 [15] was 1.45 µM (inactive). For the same compound, the GI50 [16] was 0.0247 µM (active), the GI50 [17] was 0.0331 µM (active) and the GI50 [18] was 0.0583 µM (active). For the same compound, the GI50 [19] was 1.47 µM (inactive), the GI50 [21] was < 0.0344 µM (active) and the GI50 [22] was 0.0989 µM (active). The GI50 [23] was 3.3 µM (inactive), the GI50 [24] was 1.03 µM (active) and the GI50 [25] was < 0.01 µM (active). For the same compound, the GI50 [26] was 0.113 µM (active), the GI50 [27] was < 0.01 µM (active) and the GI50 [28] was 3.4 µM (inactive). The GI50 [29] was 1.36 µM (inactive), the GI50 [30] was < 0.0359 µM (active) and the GI50 [31] was < 0.0103 µM (active). For the same compound, the GI50 [32] was < 0.01 µM (active), the GI50 [33] was 8.2 µM (inactive) and the GI50 [58] was 2.4 µM (inactive). The GI50 [34] was 1.33 µM (inactive), the GI50 [35] was < 0.01 µM (active) and the GI50 [36] was 5.43 µM (inactive). For the same compound, the GI50 [37] was 0.301 µM (active), the GI50 [38] was 0.0525 µM (active) and the GI50 [39] was < 0.01 µM (active). For the same compound, the GI50 [40] was 20.5 µM (inactive), the GI50 [41] was < 0.01 µM (active) and the GI50 [59] was 14.7 µM (inactive). For the same compound, the GI50 [42] was < 0.01 µM (active), the GI50 [43] was < 0.01 µM (active) and the GI50 [44] was < 0.0444 µM (active). The GI50 [45] was 0.815 µM (active), the GI50 [46] was < 0.01 µM (active) and the GI50 [47] was 0.125 µM (active). For the same compound, the GI50 [48] was 7.82 µM (inactive), the GI50 [49] was 0.0378 µM (active) and the GI50 [50] was 0.121 µM (active). For the same compound, the GI50 [51] was 2.76 µM (inactive), the GI50 [52] was 0.179 µM (active) and the GI50 [53] was 12.1 µM (inactive). The GI50 [54] was 3.01 µM (inactive), the GI50 [55] was < 0.015 µM (active) and the GI50 [56] was 0.0277 µM. The GI50 [57] was 3.4 µM (inactive).
